# Reference: publication PMC7934981, “n-Propyl 6-amino-2,6-dideoxy-2,2-difluoro-β-D-glucopyranoside is a good inhibitor for the β-galactosidase from E. coli” (Medicinal Chemistry Research, 2021)
# Where two headings read alike, the source gives them in different places.
# What was measured:
# [1] = molecular target: T1, α-glucosidase from Baker’s yeast (Saccharomyces cerevisiae, UniProt P53341); assay: Glycosidase inhibition, p-nitrophenolate assay; type: biochemical
# T1 construct: purchased
# Method: (§1) An in vitro evaluation of these compounds to act as an enzyme inhibitor using a panel of commercially available glycosidases was performed (Table 1) using p-nitrophenolate assays.
# (§2) The corresponding p-nitrophenyl glycoside and the inhibitors were dissolved in NaOAc buffer (0.05 M, pH = 6.0) reaching final concentrations of 1.0, 1.11, 1.25, 1.43, 1.67, 2.0, 2.5, 3.33, 5.0, and 10 mM. Further dilutions (if necessary) were made in the ratios 1:60, 1:50, 1:40, 1:30, 1:20, 1:10, and 1:5. The ice-cooled solution of the enzymes was contained between 4.0 and 4.5 U/mL. The kinetic assays were performed in 96-well microtiter plates. The following solutions were pipetted per well: p-nitrophenyl glycoside (100 μL), enzyme (50 μL), inhibitor (100 μL), and standard (p-nitrophenol, 5 μL). Immediately after addition, UV/Vis absorption was measured at 42 °C and λ = 415 nm for 20 min with a single measurement interval of 50 s.
# [2] = molecular target: β-glucosidase from almonds; assay: Glycosidase inhibition, p-nitrophenolate assay; type: biochemical; conditions: mean of triplicate experiments, n.a. = no activity
# Method: as §1, §2
# [3] = molecular target: T2, β-galactosidase from E. coli (Escherichia coli, UniProt P00722); assay: Glycosidase inhibition, p-nitrophenolate assay; type: biochemical; conditions: mean of triplicate experiments
# T2 construct: purchased
# Method: as §1, §2
# [4] = molecular target: T3, α-galactosidase from green coffee beans (Coffea arabica, UniProt Q42656); assay: Glycosidase inhibition, p-nitrophenolate assay; type: biochemical; conditions: mean of triplicate experiments
# T3 construct: purchased
# Method: as §1, §2
# [5] = Cytotoxicity, sulforhodamine B (SRB) assay, nonmalignant cells; type: cell-based, mouse; conditions: NIH 3T3 fibroblasts (nonmalignant); for IC50 at 3 days: nonmalignant NIH 3T3 mouse fibroblasts, no significant cytotoxicity; for EC50 at 3 days: mouse, as restated in the conclusion, NIH 3T3, read-out: EC50, cytotoxicity (SRB assays)
# Method: (§3) Low or absent cytotoxicity is a mandatory requirement for subsequent therapeutic use of the compounds as glycosidase inhibitors. Therefore, their cytotoxicity was determined.
# (§4) The cell lines were obtained from Department of oncology (Martin-Luther-University Halle-Wittenberg). Cultures were maintained as monolayers in RPMI 1640 medium with L-glutamine (Capricorn Scientific GmbH, Ebsdorfergrund, Germany) supplemented with 10% heat inactivated fetal bovine serum (Sigma-Aldrich Chemie GmbH, Steinheim, Germany) and penicillin/streptomycin (1%, Capricorn Scientific GmbH, Ebsdorfergrund, Germany) at 37 °C in a humidified atmosphere with 5% CO2.
# (§5) The cytotoxicity of the compounds was evaluated using the SRB (Kiton-Red S, ABCR) micro culture colorimetric assay using […] cells in 96-well plates with the seeding of the cells on day 0 applying appropriate cell densities to prevent confluence of the cells during the period of the experiment. On day 1, the cells were treated with six different concentrations (1, 3, 7, 12, 20, and 30 μM); thereby, the final concentration of DMSO was always < 0.5%, generally regarded as nontoxic to the cells. On day 4, the supernatant medium was discarded; the cells were fixed with 10% trichloroacetic acid. After another day at 4 °C, the cells were washed in a strip washer and dyed with the SRB solution (100 μL, 0.4% in 1% acetic acid) for about 20 min to be followed by washing of the plates (four times, 1% acetic acid) and air-drying overnight. Furthermore, tris base solution (200 μL, 10 mM) was added to each well and absorbance was measured at λ = 570 nm employing a reader (96-wells, Tecan Spectra, Crailsheim, Germany).
# [6] = Cytotoxicity, sulforhodamine B (SRB) assay, cancer cell panel; type: cell-based, human; conditions: for EC50 at 3 days: as restated in the conclusion, human cancer cell lines, read-out: EC50, cytotoxicity (SRB assays); for IC50 at 3 days: panel of 15 human cancer cell lines, no significant cytotoxicity
# Method: as §3, §4, §5
# [7] = tested on: panel of commercially available glycosidases; assay: Glycosidase panel, type of inhibition and selectivity (p-nitrophenolate assays); type: biochemical; conditions: panel of five glycosidases
# Method: as §1, §2
# [8] = p-nitrophenolate assay, mean of triplicate experiments, read-out: Ki, α-glucosidase from Baker’s yeast
# T3 sequence (Q42656 16-378): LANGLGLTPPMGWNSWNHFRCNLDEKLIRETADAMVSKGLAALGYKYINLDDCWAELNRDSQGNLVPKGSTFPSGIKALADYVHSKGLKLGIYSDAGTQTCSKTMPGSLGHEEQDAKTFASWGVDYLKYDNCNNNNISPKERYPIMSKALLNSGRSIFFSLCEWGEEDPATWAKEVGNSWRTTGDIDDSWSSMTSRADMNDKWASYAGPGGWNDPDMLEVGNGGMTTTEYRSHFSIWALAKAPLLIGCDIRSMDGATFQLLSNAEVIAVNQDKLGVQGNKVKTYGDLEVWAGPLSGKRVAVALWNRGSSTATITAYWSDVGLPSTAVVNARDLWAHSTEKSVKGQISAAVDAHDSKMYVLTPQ
# T1 sequence (P53341 whole entry): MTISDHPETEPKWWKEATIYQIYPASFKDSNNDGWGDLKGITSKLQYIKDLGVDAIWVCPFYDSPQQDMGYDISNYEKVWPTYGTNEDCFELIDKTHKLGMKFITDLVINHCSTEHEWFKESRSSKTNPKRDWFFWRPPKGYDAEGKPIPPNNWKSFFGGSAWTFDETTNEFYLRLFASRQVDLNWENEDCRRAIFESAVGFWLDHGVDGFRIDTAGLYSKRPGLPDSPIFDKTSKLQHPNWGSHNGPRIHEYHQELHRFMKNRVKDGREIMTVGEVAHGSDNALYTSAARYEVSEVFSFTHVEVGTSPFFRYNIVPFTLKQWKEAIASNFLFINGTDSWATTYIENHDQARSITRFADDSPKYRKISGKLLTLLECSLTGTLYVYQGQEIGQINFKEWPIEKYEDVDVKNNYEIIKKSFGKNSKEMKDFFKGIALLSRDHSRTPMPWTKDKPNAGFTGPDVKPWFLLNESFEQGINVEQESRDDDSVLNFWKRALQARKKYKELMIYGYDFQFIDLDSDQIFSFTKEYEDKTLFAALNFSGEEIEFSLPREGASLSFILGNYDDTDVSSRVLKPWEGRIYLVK
# T2 sequence (P00722 2-1024 limits assumed): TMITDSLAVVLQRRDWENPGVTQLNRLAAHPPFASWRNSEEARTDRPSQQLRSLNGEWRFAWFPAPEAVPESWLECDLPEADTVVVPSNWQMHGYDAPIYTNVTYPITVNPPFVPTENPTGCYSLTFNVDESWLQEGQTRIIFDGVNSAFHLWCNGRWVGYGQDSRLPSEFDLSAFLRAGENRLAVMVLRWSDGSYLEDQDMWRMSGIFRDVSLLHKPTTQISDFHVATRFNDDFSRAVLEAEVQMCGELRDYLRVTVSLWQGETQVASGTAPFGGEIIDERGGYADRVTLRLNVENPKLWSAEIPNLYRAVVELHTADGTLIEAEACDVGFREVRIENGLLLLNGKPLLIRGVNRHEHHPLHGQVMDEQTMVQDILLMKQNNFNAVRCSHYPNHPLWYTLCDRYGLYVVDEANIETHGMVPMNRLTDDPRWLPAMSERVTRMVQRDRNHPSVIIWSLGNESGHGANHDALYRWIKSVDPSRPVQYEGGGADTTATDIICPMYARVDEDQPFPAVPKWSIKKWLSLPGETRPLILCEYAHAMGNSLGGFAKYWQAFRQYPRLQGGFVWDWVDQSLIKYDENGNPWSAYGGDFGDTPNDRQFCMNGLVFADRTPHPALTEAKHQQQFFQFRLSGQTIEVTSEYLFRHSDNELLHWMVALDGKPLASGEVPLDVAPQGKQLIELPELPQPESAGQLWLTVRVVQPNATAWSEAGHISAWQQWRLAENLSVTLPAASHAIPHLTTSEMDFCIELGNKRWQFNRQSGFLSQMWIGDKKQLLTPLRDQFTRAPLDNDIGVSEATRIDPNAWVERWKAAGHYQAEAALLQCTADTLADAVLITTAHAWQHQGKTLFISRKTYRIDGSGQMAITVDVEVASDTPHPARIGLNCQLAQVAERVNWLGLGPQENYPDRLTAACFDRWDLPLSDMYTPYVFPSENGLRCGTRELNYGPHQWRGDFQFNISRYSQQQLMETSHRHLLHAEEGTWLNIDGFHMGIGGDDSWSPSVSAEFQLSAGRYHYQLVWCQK
SMILES,Ki [1] [µM],Ki [2] [nM],Ki [3] [nM],Ki [4] [µM],"Ki [1, 8] [µM]",IC50 at 3 days [5] [µM],EC50 at 3 days [5] [µM],EC50 at 3 days [6] [µM],IC50 at 3 days [6] [µM],selectivity among the glycosidases [7]
"OCCN1C[C@H](O)[C@@H](O)[C@H](O)[C@H]1CO [Miglitol, reference compound]",9.92 ± 0.14,210 ± 50,160 ± 60,13.9 ± 0.15,–,–,–,–,–,–
"CCCO[C@@H]1O[C@H](CN)[C@@H](O)[C@H](O)C1(F)F [compound 8, n-Propyl 6-amino-2,6-dideoxy-2,2-difluoro-β-D-glucopyranoside]",–,1760 ± 130,500 ± 90,3.81 ± 0.57,1.83 ± 0.16,> 50,> 50,> 50,> 50,nonselective inhibitor
"CCCO[C@@H]1O[C@H](CN)[C@@H](O)C(F)(F)[C@H]1O [compound 16, n-Propyl 6-amino-3,6-dideoxy-3,3-difluoro-β-D-ribo-hexopyranoside]",–,–,2160 ± 930,4.3 ± 0.24,4.13 ± 0.26,> 50,> 50,> 50,> 50,–
